The text below walks through data of patent publication US7316738B2, “Milled submicron chlorothalonil with narrow particle size distribution, and uses thereof” (Phibro-Tech, Inc., priority 2004, dated 2008).

Like-named read-outs stand apart in the source and are kept apart here.

The conditions of data set [1]: cited from earlier work.
Data set [2] can be described thus: Particle size (Sedigraph 5100T) of chlorothalonil milled with 0.4–0.5 mm zirconium silicate. It counts as physicochemical.
The nature of data set [3]: Particle size (Sedigraph 5100T) of chlorothalonil milled with 0.5–0.6 mm cerium-doped zirconium oxide. It is filed as physicochemical. Here is the method:
The laboratory-sized vertical mill was provided by CB Mills, model# L-3-J. The mill has a 2 liter capacity and is jacketed for cooling. Unless otherwise specified, ambient water was cycled through the mill cooling jacket during operation. The internal dimensions are 3.9″ diameter by 9.1″ height. The mill uses a standard 3×3″ disk agitator (mild steel) on a stainless steel shaft, and it operates at 2,620 rpm.
The media used in this Example was 0.4–0.5 mm zirconium silicate beads supplied by CB Mills. All particle size determinations were made with a Sedigraph™ 5100T manufactured by Micromeritics, which uses x-ray detection and bases calculations of size on Stokes' Law.
The same mill and conditions were used in this experiment as in experiment 1. However, the grinding media was 0.5–0.6 mm cerium-doped zirconium oxide beads obtained from CB Mills. The density of the cerium doped zirconium oxide is ˜6.0 g/cm^3. […] The total batch weight was about 600 g.

For data set [4] the following is noted: cited from earlier work. The source holds these as a separate data set.
In a further data set the test system is leafspot infestation. The conditions noted are these: cited from earlier work; for Def (0.42) defoliation: 0.42 kg chlorothalonil per ha; for Def (0.84) defoliation: 0.84 kg chlorothalonil per ha; for Def (1.26) defoliation: 1.26 kg chlorothalonil per ha.
Setting [5] is: 0.1 cm zirconium beads, 3000 rpm, 10 minutes, US 2004/0024099.
The mark [6] stands for this setting: milling time 0 mins, 0.4–0.5 mm zirconium silicate beads.
The mark [7] stands for this setting: milling time 30 mins, 0.4–0.5 mm zirconium silicate beads.
Where [8] appears, read: milling time 60 mins, 0.4–0.5 mm zirconium silicate beads.
Setting [9] is: milling time 90 mins, 0.4–0.5 mm zirconium silicate beads.
[10] abbreviates: milling time 120 mins, 0.4–0.5 mm zirconium silicate beads.
Where [11] appears, read: milling time 150 mins, 0.4–0.5 mm zirconium silicate beads.
[12] abbreviates: milling time 180 mins, 0.4–0.5 mm zirconium silicate beads.
[13] abbreviates: milling time 270 mins, 0.4–0.5 mm zirconium silicate beads.
The mark [14] stands for this setting: milling time 450 mins, 0.4–0.5 mm zirconium silicate beads.
Setting [15] is: milling time 0 mins, 0.5–0.6 mm cerium-doped zirconium oxide beads.
Setting [16] is: milling time 90 mins, 0.5–0.6 mm cerium-doped zirconium oxide beads.
[17] abbreviates: milling time 240 mins, 0.5–0.6 mm cerium-doped zirconium oxide beads.
Setting [18] is: 0.1 cm zirconia, 70% to 80% loading, 10 minutes, US 2004/0063847, 2003/0040569.

With “manganese ethylenebis(dithiocarbamate) [Maneb]”, the mean particle diameter in data set [1] (milled with 2 mm glass beads, U.S. Pat. No. 5,360,783 Example 2) is 1.7–1.8 micons.

`N#Cc1c(Cl)c(Cl)c(Cl)c(C#N)c1Cl` [chlorothalonil, 2,4,5,6-tetrachloro-1,3-dicyanobenzene]: the “mean volume diameter (d50)” value in data set [1] (setting [5]) was “less than 3 microns”. Besides, the “size that 90% of the number of particles are below” value in data set [1] (setting [5]) is listed as “below 0.5 microns”. Besides, in data set [1] (40% chlorothalonil, 5.6% zinc oxide formulation, wet mill or high speed media mill, U.S. Pat. No. 5,667,795), the “average particle size of the product” value is 3 microns. Further, the “average particle size diameter” value in data set [1] (milled with 2 mm glass beads, U.S. Pat. No. 5,360,783 Test 5) is 2.3 microns. Also, the d90 entry in data set [2] (at 60 minutes, 0.4–0.5 mm zirconium silicate media) is “about 2 microns”. Moreover, the starting particle size in data set [2] (before wet milling) is recorded as 3–4 microns. The “Volume % With Diameter Greater Than 2 μm” value in data set [2] (setting [6]) is given as 95 Volume %; in data set [2] (setting [7]), 21 Volume %; in data set [2] (setting [8]), 11 Volume %; in data set [2] (setting [9]) it was 22 Volume %; in data set [2] (setting [10]), 4 Volume %; in data set [2] (setting [11]), 6 Volume %. The “Volume % With Diameter Greater Than 2 μm” value worked out at 7 Volume % in data set [2] (setting [12]); 8 Volume % in data set [2] (setting [13]); 21 Volume % in data set [2] (setting [14]); 77 Volume % in data set [3] (setting [15]); 3 Volume % in data set [3] (setting [16]); 2 Volume % in data set [3] (setting [17]). Also, the “Volume % With Diameter Greater Than 5 μm” value in data set [2] (setting [6]) is listed as 48 Volume %; in data set [2] (setting [7]), 4 Volume %; in data set [2] (setting [8]) it was 2 Volume %; in data set [2] (setting [9]), 23 Volume %; in data set [2] (setting [10]), 0 Volume %; in data set [2] (setting [11]), 2 Volume %. Besides, the “Volume % With Diameter Greater Than 5 μm” value came to 2 Volume % in data set [2] (setting [12]); 0 Volume % in data set [2] (setting [13]); 8 Volume % in data set [2] (setting [14]); 30 Volume % in data set [3] (setting [15]); 3 Volume % in data set [3] (setting [16]); 1 Volume % in data set [3] (setting [17]). Besides, the “Volume % With Diameter Greater Than 10 μm” value was found to be 10 Volume % in data set [2] (setting [6]); 0 Volume % in data set [2] (setting [7]); 4 Volume % in data set [2] (setting [8]); 18 Volume % in data set [2] (setting [9]); 2 Volume % in data set [2] (setting [10]); 0 Volume % in data set [2] (setting [11]). The “Volume % With Diameter Greater Than 10 μm” value amounted to 2 Volume % in data set [2] (setting [12]); 2 Volume % in data set [2] (setting [13]); 12 Volume % in data set [2] (setting [14]); 8 Volume % in data set [3] (setting [15]); 3 Volume % in data set [3] (setting [16]); 0 Volume % in data set [3] (setting [17]). Also, the d50 in data set [2] (setting [6]) was 4.9 μm; in data set [2] (setting [7]) it was 1.3 μm; in data set [2] (setting [8]) it was 1.0 μm; in data set [2] (setting [9]) it was 1.4 μm; in data set [2] (within about one hour, 0.4–0.5 mm zirconium silicate media) it was around 1 micron; in data set [3] (setting [16]), 0.31 μm. Moreover, the d50 in data set [3] (setting [17]) is 0.21 μm; in data set [3] (obtainable in 90 minutes, 0.5 mm zirconia milling media) it was “less than 1 micron”. The “Volume % With Diameter Greater Than 1 μm” value in data set [2] (setting [7]) worked out at 68 Volume %; in data set [2] (setting [8]), 50 Volume %; in data set [2] (setting [9]), 94 Volume %; in data set [2] (setting [11]) it was 58 Volume %; in data set [2] (setting [12]) it was 53 Volume %; in data set [2] (setting [13]) it was 54 Volume %. The “Volume % With Diameter Greater Than 1 μm” value was 56 Volume % in data set [2] (setting [14]), 92 Volume % in data set [3] (setting [15]), 3 Volume % in data set [3] (setting [16]) and 3 Volume % in data set [3] (setting [17]). For the same compound, the entries for the “increase in number of particles per unit of mass over the standard products (factor)” value in data set [3] (after 90 minutes of milling (first statement)) and in data set [3] (after 90 minutes of milling (second statement)) were “more than 30” and “more than 1000”, respectively. Further, the “Volume % With Diameter Greater Than 0.4 μm” value was determined as 22 Volume % in data set [3] (setting [16]) and 3 Volume % in data set [3] (setting [17]). For the same compound, in data set [3] (setting [17]), the “Volume % With Diameter Greater Than 0.2 μm” value is 51 Volume %.

For the compound `N#Cc1c(Cl)c(Cl)c(Cl)c(C#N)c1Cl` [Wet, chlorothalonil], the “<1μ, % (percentage of particles with a diameter less than 1 micron)” value is recorded as 8% in data set [4] (1974 data, wet milled 3 hr); 22% in data set [4] (1974 data, wet milled 9 hr); 24% in data set [4] (1974 data, wet milled 13 hr); 10% in data set [4] (1975 data, wet milled 3 hr); 22% in data set [4] (1975 data, wet milled >9 hr). Moreover, the “med. μ (median diameter in microns)” value was 3.8 microns in data set [4] (1974 data, wet milled 3 hr); 1.75 microns in data set [4] (1974 data, wet milled 9 hr); 1.6 microns in data set [4] (1974 data, wet milled 13 hr); 3.7 microns in data set [4] (1975 data, wet milled 3 hr); 1.6 microns in data set [4] (1975 data, wet milled >9 hr). Moreover, the “Def (0.42) defoliation” value in the data set on leafspot infestation (1974 data, wet milled 3 hr) was 33; with leafspot infestation (1974 data, wet milled 9 hr) it was 32; in the data set with leafspot infestation (1974 data, wet milled 13 hr) it was 27; with leafspot infestation (1975 data, wet milled 3 hr), 35; in the data set with leafspot infestation (1975 data, wet milled >9 hr) it was 32. In addition, the “Def (0.84) defoliation” value in the data set with leafspot infestation (1974 data, wet milled 3 hr) is reported as 24; with leafspot infestation (1974 data, wet milled 9 hr), 17.2; in the data set on leafspot infestation (1974 data, wet milled 13 hr), 23; in the data set with leafspot infestation (1975 data, wet milled 3 hr), 28; in the data set on leafspot infestation (1975 data, wet milled >9 hr), 29. The “Def (1.26) defoliation” value in the data set with leafspot infestation (1974 data, wet milled 3 hr) is on record as 15.5; with leafspot infestation (1974 data, wet milled 9 hr), 14.1; in the data set with leafspot infestation (1974 data, wet milled 13 hr) it was 15.4; with leafspot infestation (1975 data, wet milled 3 hr), 28; in the data set on leafspot infestation (1975 data, wet milled >9 hr) it was 29.

Turning to `CC1OC(C)OC(C)OC(C)O1` (stereo not shown) [metaldehyde], in data set [1] (setting [18]), the “diameter that 90% of the particles are below” value is “less than 2.5 microns” and the mean volume diameter result is “less than 1.5 microns”.

Consider `N#Cc1c(Cl)c(Cl)c(Cl)c(C#N)c1Cl` [Air, chlorothalonil], for which, in data set [4] (1974 data, air milled), the “<1μ, % (percentage of particles with a diameter less than 1 micron)” value is reported as 7% and the “med. μ (median diameter in microns)” value is 3.3 microns. Also, in data set [4] (1975 data, air milled), the “<1μ, % (percentage of particles with a diameter less than 1 micron)” value is 5% and the “med. μ (median diameter in microns)” value was 3.3 microns. Besides, in the data set on leafspot infestation (1974 data, air milled), the “Def (0.42) defoliation” value was 39, the “Def (0.84) defoliation” value was 25 and the “Def (1.26) defoliation” value is given as 19. Moreover, in the data set on leafspot infestation (1975 data, air milled), the “Def (0.42) defoliation” value was 35, the “Def (0.84) defoliation” value is 34 and the “Def (1.26) defoliation” value is 27.
